Measurements from patent US10758534B2 (Vertex Pharmaceuticals Incorporated, priority 2014, dated 2020).

target: T1, F508del (Homo sapiens, UniProt P13569, DEL508-508); test: Protocol 2: FRET membrane potential optical assay (VIPR), identification of correction compounds; format: cell-based; details: F508del CFTR modulator activity; compounds of Table 1; read-out: EC30
T1 construct: expressed in transfected cells
Method in brief: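 NIH3T3 mouse fibroblasts stably expressing F508del were treated with test compound for 16 hrs at 37° C. in serum-free medium; 27° C. incubation served as positive control. F508del was activated with 10 μM forskolin plus 20 μM genistein in Cl^−-free medium, and Cl^− efflux-driven depolarization was read by DiSBAC2(3)/CC2-DMPE FRET.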

T1 sequence (P13569 with tags, fused parts or gaps DEL508-508): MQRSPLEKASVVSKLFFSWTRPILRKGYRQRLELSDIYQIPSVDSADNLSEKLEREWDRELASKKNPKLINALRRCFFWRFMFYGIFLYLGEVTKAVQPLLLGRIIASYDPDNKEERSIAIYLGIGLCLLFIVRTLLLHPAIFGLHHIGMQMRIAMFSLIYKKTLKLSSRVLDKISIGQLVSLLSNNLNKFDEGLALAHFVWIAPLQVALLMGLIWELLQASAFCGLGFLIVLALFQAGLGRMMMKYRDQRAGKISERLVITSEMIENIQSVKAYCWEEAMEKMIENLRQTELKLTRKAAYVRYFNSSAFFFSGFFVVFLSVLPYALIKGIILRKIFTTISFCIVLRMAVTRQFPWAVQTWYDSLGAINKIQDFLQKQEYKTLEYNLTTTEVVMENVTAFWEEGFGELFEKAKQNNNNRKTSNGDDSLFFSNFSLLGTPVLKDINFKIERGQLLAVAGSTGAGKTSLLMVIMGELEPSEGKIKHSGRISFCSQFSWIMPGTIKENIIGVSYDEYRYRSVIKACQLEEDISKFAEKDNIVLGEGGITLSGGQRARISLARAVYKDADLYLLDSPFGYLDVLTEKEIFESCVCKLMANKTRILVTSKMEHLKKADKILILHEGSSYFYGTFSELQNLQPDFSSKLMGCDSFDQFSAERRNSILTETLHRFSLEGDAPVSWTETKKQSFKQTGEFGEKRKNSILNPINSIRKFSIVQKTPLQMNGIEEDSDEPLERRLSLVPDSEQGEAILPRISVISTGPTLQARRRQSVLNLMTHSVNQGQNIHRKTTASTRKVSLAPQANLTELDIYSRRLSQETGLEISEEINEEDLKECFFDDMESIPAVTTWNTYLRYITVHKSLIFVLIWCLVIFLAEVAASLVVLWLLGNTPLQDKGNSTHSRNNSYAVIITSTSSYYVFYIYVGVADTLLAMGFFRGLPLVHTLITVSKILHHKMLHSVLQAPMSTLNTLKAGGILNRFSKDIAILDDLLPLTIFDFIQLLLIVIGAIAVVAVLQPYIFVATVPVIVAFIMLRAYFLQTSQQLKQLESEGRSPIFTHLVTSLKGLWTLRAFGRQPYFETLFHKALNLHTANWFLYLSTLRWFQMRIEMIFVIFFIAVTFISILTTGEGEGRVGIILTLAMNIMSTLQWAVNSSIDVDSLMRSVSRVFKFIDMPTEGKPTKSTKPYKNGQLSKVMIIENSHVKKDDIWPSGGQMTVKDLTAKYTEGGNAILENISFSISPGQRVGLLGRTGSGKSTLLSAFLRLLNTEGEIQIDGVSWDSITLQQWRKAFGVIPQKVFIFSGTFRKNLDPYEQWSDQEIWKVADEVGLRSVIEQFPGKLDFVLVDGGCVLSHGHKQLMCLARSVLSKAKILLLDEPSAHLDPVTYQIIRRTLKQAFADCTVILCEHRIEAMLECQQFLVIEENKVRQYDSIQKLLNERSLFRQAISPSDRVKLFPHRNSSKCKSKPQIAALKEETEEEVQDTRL

Compound	EC30 [µM]
CC1CN(c2ncccc2C(=O)NS(=O)(=O)c2cccc(OCc3ccc(Cl)cc3F)n2)C(C)(C)C1 (stereo not shown) [Compound 2182, N—[[6-[(4-chloro-2-fluoro-phenyl)methoxy]-2-pyridyl]sulfonyl]-2-(2,2,4-trimethylpyrrolidin-1-yl)pyridine-3-carboxamide]	< 3
CCCC(C)N1CCN(c2cccc(S(=O)(=O)NC(=O)c3cccnc3N3CC(C)CC3(C)C)n2)CC1 (stereo not shown) [Compound 2226, N—[[6-[4-(1-methylbutyl)piperazin-1-yl]-2-pyridyl]sulfonyl]-2-(2,2,4-trimethylpyrrolidin-1-yl)pyridine-3-carboxamide]	3 to 10
CC1CN(c2ncccc2C(=O)NS(=O)(=O)c2cccc(NC(C)c3cccc4ccccc34)n2)C(C)(C)C1 (stereo not shown) [Compound 2049, N—[[6-[1-(1-naphthyl)ethylamino]-2-pyridyl]sulfonyl]-2-(2,2,4-trimethylpyrrolidin-1-yl)pyridine-3-carboxamide]	< 3
CC1CN(c2ncccc2C(=O)NS(=O)(=O)c2cccc(Nc3ccc(-c4cnco4)cc3)n2)C(C)(C)C1 (stereo not shown) [Compound 2546, N—[[6-(4-oxazol-5-ylanilino)-2-pyridyl]sulfonyl]-2-(2,2,4-trimethylpyrrolidin-1-yl)pyridine-3-carboxamide]	< 3
COc1cccc(-c2ccc(C(=O)NS(=O)(=O)c3cccnc3N)c(N3C[C@@H](C)CC3(C)C)n2)n1 [Compound 2268, N-[(2-amino-3-pyridyl)sulfonyl]-6-(6-methoxy-2-pyridyl)-2-[(4S)-2,2,4-trimethylpyrrolidin-1-yl]pyridine-3-carboxamide]	< 3
CCCN(CC1CC1)c1cccc(S(=O)(=O)NC(=O)c2cccnc2N2CC(C)CC2(C)C)n1 (stereo not shown) [Compound 2723]	< 3
CC(C)COc1cc(F)cc(-c2ccc(C(=O)NS(=O)(=O)N[C@@H]3CCCNC3)c(N3C[C@@H](C)CC3(C)C)n2)c1 [Compound 2677, 6-(3-fluoro-5-isobutoxy-phenyl)-N-[[(3R)-3-piperidyl]sulfamoyl]-2-[(4S)-2,2,4-trimethylpyrrolidin-1-yl]pyridine-3-carboxamide]	< 3
COc1c(F)cc(F)cc1-c1ccc(C(=O)NS(=O)(=O)c2cccnc2N)c(N2C[C@@H](C)CC2(C)C)n1 [Compound 2006, N-[(2-amino-3-pyridyl)sulfonyl]-6-(3,5-difluoro-2-methoxy-phenyl)-2-[(4S)-2,2,4-trimethylpyrrolidin-1-yl]pyridine-3-carboxamide]	< 3
CC1CN(c2ncccc2C(=O)NS(=O)(=O)c2cccc(NC3CC3)n2)C(C)(C)C1 (stereo not shown) [Compound 2574, N—[[6-(cyclopropylamino)-2-pyridyl]sulfonyl]-2-(2,2,4-trimethylpyrrolidin-1-yl)pyridine-3-carboxamide]	3 to 10
CC1CN(c2ncc(-c3cccc(C(C)(C)C)c3)cc2C(=O)NS(=O)(=O)c2cccc(N)n2)C(C)(C)C1 (stereo not shown) [Compound 2180, N-[(6-amino-2-pyridyl)sulfonyl]-5-(3-tert-butylphenyl)-2-(2,2,4-trimethylpyrrolidin-1-yl)pyridine-3-carboxamide]	< 3
Cc1cccc(N2CCN(c3cccc(S(=O)(=O)NC(=O)c4cccnc4N4CC(C)CC4(C)C)n3)CC2)n1 (stereo not shown) [Compound 2285, N—[[6-[4-(6-methyl-2-pyridyl)piperazin-1-yl]-2-pyridyl]sulfonyl]-2-(2,2,4-trimethylpyrrolidin-1-yl)pyridine-3-carboxamide]	< 3
Cc1cc(C)nc(Nc2cccc(S(=O)(=O)NC(=O)c3cccnc3N3CC(C)CC3(C)C)n2)c1 (stereo not shown) [Compound 2160, N—[[6-[(4,6-dimethyl-2-pyridyl)amino]-2-pyridyl]sulfonyl]-2-(2,2,4-trimethylpyrrolidin-1-yl)pyridine-3-carboxamide]	3 to 10
CC1CN(c2ncccc2C(=O)NS(=O)(=O)c2cccc(O[C@@H](C)c3ccccc3)n2)C(C)(C)C1 (stereo partly drawn) [Compound 2186, N—[[6-[(1S)-1-phenylethoxy]-2-pyridyl]sulfonyl]-2-(2,2,4-trimethylpyrrolidin-1-yl)pyridine-3-carboxamide]	< 3
CC(C)Cc1ccc(C(=O)NS(=O)(=O)c2cccnc2N)c(N2C[C@@H](C)CC2(C)C)n1 [Compound 2150, N-[(2-amino-3-pyridyl)sulfonyl]-6-isobutyl-2-[(4S)-2,2,4-trimethylpyrrolidin-1-yl]pyridine-3-carboxamide]	< 3

same assay, conditions: Table 3; compounds of Table 1 as modulators of CFTR activity; protocol not stated

Compound	EC30
CC(C)c1ccc(-c2ccc(C(=O)NS(=O)(=O)c3ccn[nH]3)c(N3[C@H](C)CC[C@@H]3C)n2)cc1 [Compound 414, 2-[(2S,5R)-2,5-dimethylpyrrolidin-1-yl]-6-(4-isopropylphenyl)-N-(1H-pyrazol-5-ylsulfonyl)pyridine-3-carboxamide]	+++ (“+++” means <3 uM)
Cc1cccc(C)c1Cn1nc(-c2ccc(F)cc2)cc1C(=O)NS(=O)(=O)c1ccccc1 [Compound 333, N-(benzenesulfonyl)-2-[(2,6-dimethylphenyl)methyl]-5-(4-fluorophenyl)pyrazole-3-carboxamide]	+++ (“+++” means <3 uM)
Cc1cc(C)c(Cn2c(C(=O)NS(=O)(=O)c3cccc(N)c3)cc3cccnc32)c(C)c1 [Compound 184, N-(3-aminophenyl)sulfonyl-1-[(2,4,6-trimethylphenyl)methyl]pyrrolo[2,3-b]pyridine-2-carboxamide]	++ (“++” means between 3 uM and 10 uM)
CCCOc1cc(-c2ccc(C(=O)NS(=O)(=O)c3cccc(N)n3)c(N3CCC(C)CC3)n2)ccc1Cl [Compound 692, N-[(6-amino-2-pyridyl)sulfonyl]-6-(4-chloro-3-propoxy-phenyl)-2-(4-methyl-1-piperidyl)pyridine-3-carboxamide]	+++ (“+++” means <3 uM)
Cc1cccc(C)c1Cn1nc(-c2ccc3c(ccn3C)c2)cc1C(=O)NS(=O)(=O)c1ccccc1 [Compound 263, N-(benzenesulfonyl)-2-[(2,6-dimethylphenyl)methyl]-5-(1-methylindol-5-yl)pyrazole-3-carboxamide]	+++ (“+++” means <3 uM)
CCOc1ccc(-c2ccc(C(=O)NS(=O)(=O)c3cc[nH]n3)c(Oc3c(C)cc(C)cc3C)n2)cc1 [Compound 190, 6-(4-ethoxyphenyl)-N-(1H-pyrazol-3-ylsulfonyl)-2-(2,4,6-trimethylphenoxy)pyridine-3-carboxamide]	+++ (“+++” means <3 uM)
COc1cccc2c1cc(C(=O)NS(=O)(=O)c1ccncc1)n2Cc1c(C)cc(C)cc1C [Compound 36, 4-methoxy-N-(4-pyridylsulfonyl)-1-[(2,4,6-trimethylphenyl)methyl]indole-2-carboxamide]	+++ (“+++” means <3 uM)
CC(C)COc1cc(F)cc(-c2ccc(C(=O)NS(=O)(=O)c3cccc(N)n3)c(N3CCCC3Cc3ccccc3)n2)c1 (stereo not shown) [Compound 772, N-[(6-amino-2-pyridyl)sulfonyl]-2-(2-benzylpyrrolidin-1-yl)-6-(3-fluoro-5-isobutoxy-phenyl)pyridine-3-carboxamide]	+++ (“+++” means <3 uM)
CC(C)(C)c1ccc(C(=O)NS(=O)(=O)c2cccc(N)n2)c(OC2CCCCC2)n1 [Compound 649, N-[(6-amino-2-pyridyl)sulfonyl]-6-tert-butyl-2-(cyclohexoxy)pyridine-3-carboxamide]	++ (“++” means between 3 uM and 10 uM)
Cc1cc(C)c(Cn2cc(C(C)(C)C)cc2C(=O)NS(=O)(=O)c2ccccc2)c(C)c1 [Compound 242, N-(benzenesulfonyl)-4-tert-butyl-1-[(2,4,6-trimethylphenyl)methyl]pyrrole-2-carboxamide]	+++ (“+++” means <3 uM)
CC(C)COc1cc(F)cc(-c2ccc(C(=O)NS(=O)(=O)c3cccc(N)n3)c(N3[C@H](C)CC[C@@H]3C)n2)c1 [Compound 171, N-[(6-amino-2-pyridyl)sulfonyl]-2-[(2S,5R)-2,5-dimethylpyrrolidin-1-yl]-6-(3-fluoro-5-isobutoxy-phenyl)pyridine-3-carboxamide]	+++ (“+++” means <3 uM)
CC(C)Oc1ccc(-c2ccc(C(=O)NS(=O)(=O)c3cccc(N)n3)c(N3[C@H](C)CC[C@@H]3C)n2)cn1 [Compound 337, N-[(6-amino-2-pyridyl)sulfonyl]-2-[(2S,5R)-2,5-dimethylpyrrolidin-1-yl]-6-(6-isopropoxy-3-pyridyl)pyridine-3-carboxamide]	+++ (“+++” means <3 uM)
Cc1cc(C)c(CN2Cc3c(C(C)C)cccc3C2C(=O)NS(=O)(=O)c2cccc(N)c2)c(C)c1 (stereo not shown) [Compound 299, N-(3-aminophenyl)sulfonyl-4-isopropyl-2-[(2,4,6-trimethylphenyl)methyl]isoindoline-1-carboxamide]	+++ (“+++” means <3 uM)
COc1ccc(-c2nc(C(C)(C)C)ccc2C(=O)NS(=O)(=O)c2cccc(N)c2)cc1 [Compound 550, N-(3-aminophenyl)sulfonyl-6-tert-butyl-2-(4-methoxyphenyl)pyridine-3-carboxamide]	++ (“++” means between 3 uM and 10 uM)
Cc1cc(C)c(Oc2nc(-c3ccccc3F)ccc2C(=O)NS(=O)(=O)c2cccc(N)n2)c(C)c1 [Compound 463, N-[(6-amino-2-pyridyl)sulfonyl]-6-(2-fluorophenyl)-2-(2,4,6-trimethylphenoxy)pyridine-3-carboxamide]	++ (“++” means between 3 uM and 10 uM)
CC(C)COc1cc(F)cc(-c2ccc(C(=O)NS(=O)(=O)c3cccc(N)n3)c(N3CC4C(C3)C4(C)C)n2)c1 (stereo not shown) [Compound 609, N-[(6-amino-2-pyridyl)sulfonyl]-2-(6,6-dimethyl-3-azabicyclo[3.1.0]hexan-3-yl)-6-(3-fluoro-5-isobutoxy-phenyl)pyridine-3-carboxamide]	+++ (“+++” means <3 uM)
Cc1cc(C)c(Cn2nc(C(C)(C)C)cc2C(=O)NS(=O)(=O)c2cccc(CO)c2)c(C)c1 [Compound 39, 5-tert-butyl-N-[3-(hydroxymethyl)phenyl]sulfonyl-2-[(2,4,6-trimethylphenyl)methyl]pyrazole-3-carboxamide]	++ (“++” means between 3 uM and 10 uM)
